Results: patent publication US20250361271A1, “PEPTIDE AGONIST” (THE UNIVERSITY OF BIRMINGHAM, priority 2022, published 2025)
Read-outs that look alike come from different tables or passages of the source. Where a SMILES comes first, the peptide text is derived from it. [ ]: non-standard residue; d: D form. pGlu = O=C1CC[C@@H](C(=O)O)N1

Assays:
T1/2 in plasma (mouse) = assay type: in vitro ADME; details: mouse, plasma; 1 μM peptide, 37° C.
Excerpt: Take all measurements in duplicate.

[1] = human, plasma
Description: Store at −20° C. or on ice. • 2) Thaw the plasma and spin in a centrifuge at 1500×g for 10 minutes at room temperature. • 3) Prepare stock solution of the peptide at 10 mM in dimethyl sulfoxide (DMSO) or phosphate buffered saline (PBS) and dilute solutions by adding 3 μL of 10 mM stock to 297 μL DMSO or PBS (100 µM stock for a final 1 μM concentration). • 4) Add 550 μL plasma to an incubation tube and separately add 5 μL of peptide stock solution to an incubation tube. Warm the incubation tubes (5 minutes, 37° C., with shaking). • 5) After warming, add 495 μL of warmed plasma to warmed peptide (time=0). Mix well and shake the tube containing the mixed sample (37° C., 1500×g). • 6) At 2, 5, 15, 30, 45 and 60 minutes after contacting the peptide and plasma, collect 40 μL of the sample into pre-prepared quench tubes. • 7) Analyse the sample at each time point by mass spectrometry. Take all measurements in duplicate.
The samples were analysed and the T1/2 values were calculated by XenoGesis. The T1/2 values correspond to the time taken for the concentration of the peptide in the blood or plasma to be reduced by 50%.

[2] = tested on: PBLs on cytokine stimulated HDBECs
Description: Blood samples were obtained from consensual healthy donors and were collected in EDTA tubes (Sigma-Aldrich). […] 5 ml of blood was layered on top of the density gradient, and was centrifuged at 2500 rpm for 45 minutes. […] The PBMCs were washed twice for 7 minutes at 1500 rpm. Peripheral blood lymphocytes (PBLs) were isolated via panning PBMCs onto a culture flask for 30 minutes at 37° C., allowing monocytes to adhere.
HDBECS defrosted at 37° C. in a 25 cm^2 cell culture flask in 10 ml of media were dissociated using EDTA (Sigma-Aldrich) and Trypsin (Gibco) and seeded on 10 wells in a 12-well tissue culture plates (Falcon) and left to adhere at 37° C. After 24 hours, confluent endothelial layers were cytokine stimulated using 100 U/ml TNF-α (Sigma-Aldrich) and 10 ng/ml IFN-γ (Peprotech) for 24 hours at 37° C. The peptide treatment of the 1×10^6 cells/ml PBLs consisted of adding the peptides immediately before use. […] 1×10^6 PBLs were added to each well and incubated at 37° C., allowing PBLs to adhere to migrate across the endothelium. […] Cells were then fixed with 2% glutaraldehyde for 10 minutes and then imaged using phase-contrast microscopy via an inverted bright-field microscope at 20× magnification.
Imaging of the PBL migration assay was carried out using ImagePro 7 software (Media Cybernetics). Surface adherent cells were categorised as being phase-bright, and transmigrated cells were categorised as phase-dark with altered morphology, appearing as being under the endothelial layer. Images were taken at 5 different fields of each well, and an average of counted adherent and migrated PBLs was calculated.
The same methods described for the in vitro transmigration assay and analysis were used, and PBL transmigration was calculated as a percentage of adherent cells. Peptides were added to the PBLs at concentrations ranging from 0.0001-500 ng/ml on the cytokine stimulated HDBECs and the resulting PBL transmigration (as a percentage of adherent cells) was plotted as a function of log10 of the peptide concentration.
The peptides were added at concentration of 20 ng/ml and run alongside untreated PBL (PBL0) and scrambled protein to analyse their effects on adhesion and transmigration.

[3] = tested on: primary murine calvarial osteoblasts; assay: Alkaline phosphatase activity, murine osteoblasts; assay type: cell-based, mouse; details: 10 ng/ml peptide, 4 days, vs untreated cells, FIG. 5a
Description: Skin was removed from around calvaria using forceps, and the calvaria was dissected out and cleaned of any contaminating tissue. Calvaria were added to αMEM media supplemented with 1 mg/ml of collagenase d (Roche, Basel, Switzerland, COLLD-RO). Tubes were then agitated at 37° C. for 10 minutes and the media discarded. αMEM media supplemented with 1 mg/ml of collagenase d was again added to calvaria and shaken at 37° C. for 30 minutes. Media (containing cells) was then removed and kept on ice. The calvaria were then again shaken at 37° C. for 10 minutes in 1.5 ml of αMEM media supplemented with 5 μM EDTA (Sigma-Aldrich, E7889) and the cell containing media transferred to the sample on ice, pooling the cells. […] Cells on ice were then spun down at 300 g for 4 minutes, resuspended in 1 ml of Basal media and counted using a haemocytometer. […] Mineralisation was assessed by quantifying the level of alkaline phosphate (ALP) activity (absorbance at 405 nm) per condition normalized to the absorbance generated by the untreated control (control on the graph). […] The plate was wrapped in foil and left to run for 45 minutes at 37° C. in an incubated shaker (SciQuip; Shropshire, UK) before being quantified using a Synergy HT plate reader (BioTek) with absorbance set at 405 nm.

[4] = tested on: primary human osteoblasts; assay: Alkaline phosphatase activity, human osteoblasts; assay type: cell-based; details: 10 ng/ml peptide, 4 days, vs untreated cells, FIG. 5a
Description: Human osteoarthritis subchondral joint tissue was obtained at the time of total knee and hip joint replacement operations from the Royal Orthopaedic Hospital (Birmingham). To isolate primary osteoblasts, cartilage was removed from the femoral condyles and tibial plateaus and cut into 2 mm^2 pieces. Samples were kept in media and cleaned of fat. Media contains DMEM (Sigma, D6546), FCS (10%), GPS (1%), Non-essential amino acid (1%; Sigma, M7145), β10 glycerophosphate (2 mM; Sigma, G9422) and L-Ascorbic acid (50 μg/ml; Sigma, A5960). Bone chips were placed in T75 flasks in 10 mL of media, replacing media every 2-3 days. […]
Osteoblasts (8×10^3 cells/well) were cultured in mineralisation differentiation media in the presence or absence of peptide (10 ng/ml) for 4 days. Mineralisation was assessed by quantifying the level of alkaline phosphate (ALP) activity (absorbance at 405 nm) per condition normalized to the absorbance generated by the untreated control (control on the graph).
To measure ALP activity, cells were washed in PBS before being lysed in 100 μl of RIPA buffer (Thermo Fisher, R^0278) for 15 minutes on ice. […] The plate was wrapped in foil and left to run for 45 minutes at 37° C. in an incubated shaker (SciQuip; Shropshire, UK) before being quantified using a Synergy HT plate reader (BioTek) with absorbance set at 405 nm.

| Molecule | half-life (T1/2 in plasma (mouse)) | half-life [1] | IC50 [2] | % Inhibition (3 nM) ([2]; 3 nM peptide, inhibition of PBL transmigration (as a percentage of adherent cells)) | ALP activity (mineralisation), murine osteoblasts [3] | ALP activity (mineralisation), human osteoblasts [4] |
| --- | --- | --- | --- | --- | --- | --- |
| C[C@H](NC(=O)CNC(=O)[C@@H]1CCC(=O)N1)C(=O)O [SEQ ID NO. 21, pEGA] ([pGlu]-Gly-Ala-OH) | > 3 h | > 3 h | 120 pM | 41.20% |  |  |
| ELSNEER [SEQ ID NO. 47, reference compound] |  |  |  |  | did not exhibit a statistically significant change in osteoblast activity | did not exhibit a statistically significant change in osteoblast activity |
